Active and inactive are the calls of the source. The rule behind the calls is not given here.
What was measured:
[1] = target: Glutamate receptor ionotropic AMPA (Homo sapiens) (UniProt P48058+P42263+P42262+P42261); test: Positive allosteric modulation at AMPAR in HEK293 cells expressing GluA2 assessed as glutamate induced calcium influx by measuring efficacy relative to control; assay type: cell-based; conditions: filed as positive allosteric modulator
[2] = target: T1, Glutamate receptor ionotropic, AMPA (Rattus norvegicus) (UniProt P19491+P19492+P19493+P19490); test: Positive allosteric modulation at AMPAR in rat Primary embryonic cortical cell assessed as concentration required for 2 fold increase in AMPA induced fluorescence; assay type: cell-based; conditions: filed as positive allosteric modulator
[3] = target: T1, Glutamate receptor ionotropic, AMPA (Rattus norvegicus); test: Positive allosteric modulation at AMPAR in rat Primary embryonic cortical cell assessed as concentration required for 2 fold increase in AMPA induced fluorescence by FDSS fluorescence assay; assay type: cell-based; conditions: Cerebral cortex cell, filed as positive allosteric modulator
[4] = target: Glutamate receptor ionotropic kainate 1 (Homo sapiens) (UniProt P39086); test: Positive allosteric modulation at kainate receptor in HEK293 cells expressing GluK1-Q1b assessed as glutamate induced calcium influx by measuring efficacy relative to control; conditions: filed as positive allosteric modulator
[5] = Toxicity in NMR1 mouse assessed as effect on hypothermia at 30 mg/kg measured upto 180 mins; assay type: organism-based; conditions: in vivo, 3 h
[6] = target: Glutamate receptor ionotropic AMPA (Homo sapiens, UniProt P42261+P42262+P42263+P48058); test: Positive allosteric modulation at AMPAR in HEK293 cells expressing GluA2Qi subunit assessed as glutamate induced calcium influx; assay type: cell-based
[7] = target: Glutamate receptor ionotropic kainate 2 (Homo sapiens) (UniProt Q13002); test: Positive allosteric modulation at kainate receptor in HEK293 cells expressing GluK2-Q2a assessed as glutamate induced calcium influx by measuring efficacy relative to control; conditions: filed as positive allosteric modulator
[8] = Toxicity in NMR1 mouse assessed as effect on hypothermia at 100 mg/kg measured upto 180 mins; assay type: organism-based; conditions: in vivo, 3 h
Rattus norvegicus = test: Cognition enhancing effect in Wistar rat assessed as increase in amplitude of initial post-synaptic response at 30 mg/kg, ip pretreated for 1 hr followed by tetanic stimulation and measured for 3 hrs; assay type: functional, organism-based; conditions: time 4.0 hrs
Mus musculus [9] = test: Cognition enhancing effect in CD1 mouse assessed as increase in exploration time spent on new object at 3 mg/kg, po measured after 1 hr by object recognition test (reference value: 35%); assay type: functional
[10] = Toxicity in NMR1 mouse assessed as pro-convulsant effect at 100 mg/kg measured upto 180 mins; assay type: organism-based; conditions: in vivo, 3 h
Mus musculus [11] = test: Cognition enhancing effect in CD1 mouse assessed as increase in exploration time spent on new object at 1 mg/kg, po measured after 1 hr by object recognition test (reference value: 35%); assay type: functional
[12] = target: T1, Glutamate receptor ionotropic, AMPA (Rattus norvegicus); test: Positive allosteric modulation at AMPAR in rat Primary embryonic cortical cell assessed as concentration required for 2 fold increase in AMPA induced fluorescence by FlipR assay; assay type: cell-based; conditions: filed as positive allosteric modulator
[13] = target: T1, Glutamate receptor ionotropic, AMPA (Rattus norvegicus); test: Positive allosteric modulation of rat cortex AMPAR expressed in xenopus oocytes assessed as concentration required for 2 fold increase in AMPA induced […]; assay type: cell-based; conditions: Oocyte, filed as positive allosteric modulator

Chain of Glutamate receptor ionotropic kainate 2 (Homo sapiens) (Q13002 whole entry, looked up): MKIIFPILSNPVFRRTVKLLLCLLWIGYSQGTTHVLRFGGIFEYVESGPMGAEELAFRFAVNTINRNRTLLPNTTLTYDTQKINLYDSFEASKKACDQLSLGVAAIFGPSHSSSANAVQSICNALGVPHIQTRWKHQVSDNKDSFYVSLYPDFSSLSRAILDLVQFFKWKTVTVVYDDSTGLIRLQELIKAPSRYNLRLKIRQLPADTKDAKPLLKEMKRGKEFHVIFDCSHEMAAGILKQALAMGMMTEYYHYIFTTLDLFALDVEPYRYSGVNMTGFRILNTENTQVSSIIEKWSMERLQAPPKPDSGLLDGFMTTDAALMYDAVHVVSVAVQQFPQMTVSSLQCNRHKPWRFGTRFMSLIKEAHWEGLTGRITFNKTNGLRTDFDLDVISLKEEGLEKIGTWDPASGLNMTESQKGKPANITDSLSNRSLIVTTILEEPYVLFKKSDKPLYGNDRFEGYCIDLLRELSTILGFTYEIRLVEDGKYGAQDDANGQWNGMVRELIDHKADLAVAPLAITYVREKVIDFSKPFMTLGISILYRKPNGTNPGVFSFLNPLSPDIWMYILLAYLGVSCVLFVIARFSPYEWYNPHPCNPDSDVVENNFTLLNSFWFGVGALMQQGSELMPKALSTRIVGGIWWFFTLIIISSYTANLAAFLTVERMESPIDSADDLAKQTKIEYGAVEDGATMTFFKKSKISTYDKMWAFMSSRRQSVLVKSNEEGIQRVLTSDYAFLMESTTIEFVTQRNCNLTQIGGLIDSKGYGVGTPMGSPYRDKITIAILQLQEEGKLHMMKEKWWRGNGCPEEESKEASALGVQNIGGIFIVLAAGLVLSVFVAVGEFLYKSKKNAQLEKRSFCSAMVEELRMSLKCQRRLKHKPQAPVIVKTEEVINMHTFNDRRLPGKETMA
Chain of Glutamate receptor ionotropic kainate 1 (Homo sapiens) (P39086 whole entry, looked up): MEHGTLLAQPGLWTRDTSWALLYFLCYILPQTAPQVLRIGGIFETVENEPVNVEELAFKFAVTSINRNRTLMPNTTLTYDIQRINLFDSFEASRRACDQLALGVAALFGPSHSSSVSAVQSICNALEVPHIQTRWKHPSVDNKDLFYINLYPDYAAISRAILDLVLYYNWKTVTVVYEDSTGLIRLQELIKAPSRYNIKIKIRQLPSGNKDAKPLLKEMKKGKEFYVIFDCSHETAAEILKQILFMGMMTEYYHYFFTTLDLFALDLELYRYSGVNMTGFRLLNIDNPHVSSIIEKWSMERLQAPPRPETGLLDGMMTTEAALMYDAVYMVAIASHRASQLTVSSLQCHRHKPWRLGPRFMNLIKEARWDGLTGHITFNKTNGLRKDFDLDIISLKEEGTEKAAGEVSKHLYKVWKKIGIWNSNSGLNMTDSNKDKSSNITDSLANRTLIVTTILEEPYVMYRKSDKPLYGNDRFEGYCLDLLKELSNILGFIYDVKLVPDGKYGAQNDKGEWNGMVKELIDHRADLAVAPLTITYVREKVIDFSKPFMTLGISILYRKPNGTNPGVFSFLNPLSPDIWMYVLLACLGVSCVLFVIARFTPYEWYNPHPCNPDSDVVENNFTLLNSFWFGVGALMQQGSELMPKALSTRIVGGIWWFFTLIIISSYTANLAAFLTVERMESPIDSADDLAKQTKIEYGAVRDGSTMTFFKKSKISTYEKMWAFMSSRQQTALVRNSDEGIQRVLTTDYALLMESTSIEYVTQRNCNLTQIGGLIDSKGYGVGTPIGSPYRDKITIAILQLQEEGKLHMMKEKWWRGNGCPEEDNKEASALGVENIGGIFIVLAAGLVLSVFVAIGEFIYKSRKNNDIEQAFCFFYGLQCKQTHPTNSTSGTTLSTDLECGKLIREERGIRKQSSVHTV

| Efficacy [4] | EC50 [6] | Efficacy [7] | EC [12] | Structure (SMILES) | also measured |
| --- | --- | --- | --- | --- | --- |
| – | – | – | – | O=S1(=O)NCN(C2CC2)c2ccc(F)cc21 | Activity [1]: 100%; EC [2]: 0.27 µM |
| 50% | 4.7 µM | 80% | – | O=S1(=O)NCN(C2CC2)c2cc(Cl)sc21 | Activity [1]: 126%; EC [3]: 0.24 µM; Activity [5]: Toxic |
| – | – | – | – | O=S1(=O)NC2CCCN2c2cc(Cl)sc21 (centres undefined) | Activity [8]: Non-Toxic; Activity (Rattus norvegicus): Active; Activity (Mus musculus [9]): 69%; Activity [10]: Non-Toxic; Activity (Mus musculus [11]): 82% |
| – | > 100 µM | – | 40.1 µM | CN1C2CCCN2c2cc(Cl)sc2S1(=O)=O (centres undefined) | – |
| – | 39.9 µM | – | – | CN1CN(CC(F)F)c2cc(Cl)sc2S1(=O)=O | EC [3]: 24.5 µM |
| – | 76.5 µM | – | 80.4 µM | C=CCN1CN(C)S(=O)(=O)c2sc(Cl)cc21 | – |
| – | – | – | – | O=S1(=O)N[C@H]2CCCN2C2CCCCC21 (some centres undefined) | EC [13]: 24.6 µM |
| 50% | 24.6 µM | 60% | 6.4 µM | CCN1c2cc(Cl)sc2S(=O)(=O)N(C)C1C (centres undefined) | – |
| 50% | 31.5 µM | 60% | – | CC1N(CC(F)F)c2cc(Cl)sc2S(=O)(=O)N1C (centres undefined) | EC [3]: 1.2 µM |
| 112% | 26.9 µM | 80% | 18.5 µM | C=CCN1CNS(=O)(=O)c2sc(Cl)cc21 | Activity [1]: 126% |
| – | – | – | – | O=S1(=O)CCC(C2CC2)c2ccc(F)cc21 (centres undefined) | EC [2]: 2.2 µM |

Source: ChEMBL document CHEMBL5518166, “Exploring thienothiadiazine dioxides as isosteric analogues of benzo- and pyridothiadiazine dioxides in the search of new AMPA and kainate receptor positive allosteric modulators” (Eur J Med Chem, 2024)
